According to PubChem BioAssay (NCI):
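Assay format: 96-well plates, 48-hour exposure. TGI denotes the concentration required for complete inhibition of growth.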

What was measured:
Experiment in all cases: NCI anticancer screen, dose series, 48 h
ACHN renal = tested on: ACHN renal
HS 578T breast = tested on: HS 578T breast
IGROV1 ovarian = tested on: IGROV1 ovarian
KM12 colon = tested on: KM12 colon
MDA-N = tested on: MDA-N
NCI-H460 lung = tested on: NCI-H460 lung
NCI-H522 lung = tested on: NCI-H522 lung
NCI/ADR-RES ovarian = tested on: NCI/ADR-RES ovarian
OVCAR-5 ovarian = tested on: OVCAR-5 ovarian
OVCAR-8 ovarian = tested on: OVCAR-8 ovarian
PC-3 prostate = tested on: PC-3 prostate
SK-MEL-5 melanoma = tested on: SK-MEL-5 melanoma
SNB-75 CNS = tested on: SNB-75 CNS
UO-31 renal = tested on: UO-31 renal
HL-60(TB) leukemia = tested on: HL-60(TB) leukemia

C=C1CC(Cn2ccc(=O)[nH]c2=O)(c2ccc(-c3ccccc3)cc2)OC1=O (configuration not stated)
TGI (ACHN renal): 3.25 µM | TGI (HS 578T breast): 22.9 µM | TGI (IGROV1 ovarian): 2.64 µM | TGI (KM12 colon): 12.9 µM | TGI (MDA-N): 3.5 µM | TGI (NCI-H460 lung): 28.4 µM | TGI (NCI-H522 lung): 2.39 µM | TGI (NCI/ADR-RES ovarian): 4.64 µM | TGI (OVCAR-5 ovarian): 24.7 µM | TGI (OVCAR-8 ovarian): 11.1 µM | TGI (PC-3 prostate): 7.52 µM | TGI (SK-MEL-5 melanoma): 2.39 µM | TGI (SNB-75 CNS): 26.7 µM | TGI (UO-31 renal): 16.5 µM

CC(NC(=O)C(OC(=O)C(C)NC(=O)OC(C)(C)C)C(C)C)C(=O)OC(C(=O)O)C(C)C (configuration not stated)
TGI (ACHN renal): > 100 µM | TGI (HS 578T breast): > 100 µM | TGI (IGROV1 ovarian): > 100 µM | TGI (KM12 colon): > 100 µM | TGI (MDA-N): > 100 µM | TGI (NCI-H460 lung): > 100 µM | TGI (NCI-H522 lung): > 100 µM | TGI (NCI/ADR-RES ovarian): > 100 µM | TGI (OVCAR-5 ovarian): > 100 µM | TGI (OVCAR-8 ovarian): > 100 µM | TGI (PC-3 prostate): > 100 µM | TGI (SK-MEL-5 melanoma): > 100 µM | TGI (SNB-75 CNS): > 100 µM | TGI (UO-31 renal): > 100 µM

O=c1cc(CO)n(CCc2c[nH]c3ccccc23)cc1O
TGI (ACHN renal): > 100 µM | TGI (HS 578T breast): > 100 µM | TGI (IGROV1 ovarian): > 100 µM | TGI (KM12 colon): > 100 µM | TGI (MDA-N): > 100 µM | TGI (NCI-H460 lung): > 100 µM | TGI (NCI-H522 lung): 78.7 µM | TGI (NCI/ADR-RES ovarian): 99.6 µM | TGI (OVCAR-5 ovarian): > 100 µM | TGI (OVCAR-8 ovarian): > 100 µM | TGI (PC-3 prostate): > 100 µM | TGI (SK-MEL-5 melanoma): > 100 µM | TGI (UO-31 renal): > 100 µM

C[C@@]12c3c4ccc(C=O)c3Oc3ccc(C=O)c(c31)Oc1c(C=O)ccc(c12)O4
TGI (ACHN renal): > 100 µM | TGI (HS 578T breast): > 100 µM | TGI (IGROV1 ovarian): > 100 µM | TGI (KM12 colon): > 100 µM | TGI (MDA-N): > 100 µM | TGI (NCI-H460 lung): > 100 µM | TGI (NCI/ADR-RES ovarian): > 100 µM | TGI (OVCAR-5 ovarian): > 100 µM | TGI (OVCAR-8 ovarian): > 100 µM | TGI (PC-3 prostate): > 100 µM | TGI (SK-MEL-5 melanoma): > 100 µM | TGI (SNB-75 CNS): > 100 µM | TGI (UO-31 renal): > 100 µM

O=C(O)c1nc2cc(C(F)(F)F)ccc2nc1Nc1ccc(Cl)c(Cl)c1
TGI (ACHN renal): 36 µM | TGI (HS 578T breast): 37.8 µM | TGI (IGROV1 ovarian): 39.3 µM | TGI (KM12 colon): 26.2 µM | TGI (MDA-N): 69.2 µM | TGI (NCI-H460 lung): 26.3 µM | TGI (NCI-H522 lung): 31.4 µM | TGI (NCI/ADR-RES ovarian): 23.2 µM | TGI (OVCAR-5 ovarian): 32 µM | TGI (OVCAR-8 ovarian): 26 µM | TGI (PC-3 prostate): 16.1 µM | TGI (SK-MEL-5 melanoma): 52.6 µM | TGI (SNB-75 CNS): 53.3 µM | TGI (UO-31 renal): 27.6 µM

CCC(CC)C(=O)OC[n+]1ccc(-c2c(COC(=O)NC(C)C)c(COC(=O)NC(C)C)c3n2CCC3)cc1
TGI (HL-60(TB) leukemia): > 100 µM | TGI (HS 578T breast): > 100 µM | TGI (IGROV1 ovarian): > 100 µM | TGI (MDA-N): > 100 µM | TGI (NCI-H522 lung): > 100 µM | TGI (NCI/ADR-RES ovarian): > 100 µM | TGI (OVCAR-8 ovarian): > 100 µM | TGI (PC-3 prostate): > 100 µM | TGI (SK-MEL-5 melanoma): > 100 µM | TGI (UO-31 renal): > 100 µM

N#Cc1nc(CSCc2ccccc2)oc1N
TGI (ACHN renal): > 100 µM | TGI (HS 578T breast): > 100 µM | TGI (IGROV1 ovarian): > 100 µM | TGI (KM12 colon): > 100 µM | TGI (MDA-N): > 100 µM | TGI (NCI-H460 lung): > 100 µM | TGI (NCI-H522 lung): > 100 µM | TGI (NCI/ADR-RES ovarian): > 100 µM | TGI (OVCAR-5 ovarian): > 100 µM | TGI (OVCAR-8 ovarian): > 100 µM | TGI (PC-3 prostate): > 100 µM | TGI (UO-31 renal): > 100 µM

COc1ccc(C2=C(Cl)c3cc(OC)c(OC)cc3C2=O)cc1OC
TGI (ACHN renal): 17.2 µM | TGI (HL-60(TB) leukemia): > 100 µM | TGI (HS 578T breast): 87.4 µM | TGI (IGROV1 ovarian): 32.1 µM | TGI (KM12 colon): 32.2 µM | TGI (MDA-N): 38.3 µM | TGI (NCI-H522 lung): 27 µM | TGI (NCI/ADR-RES ovarian): 51.5 µM | TGI (OVCAR-5 ovarian): 33.9 µM | TGI (OVCAR-8 ovarian): 31.9 µM | TGI (SK-MEL-5 melanoma): 31.7 µM | TGI (SNB-75 CNS): > 100 µM | TGI (UO-31 renal): 30.2 µM

O=C(c1ccco1)C1CC(c2ccc3ccccc3c2O)=NN1 (configuration not stated)
TGI (ACHN renal): > 100 µM | TGI (HS 578T breast): > 100 µM | TGI (IGROV1 ovarian): > 100 µM | TGI (KM12 colon): > 100 µM | TGI (MDA-N): > 100 µM | TGI (NCI-H460 lung): > 100 µM | TGI (NCI-H522 lung): > 100 µM | TGI (NCI/ADR-RES ovarian): > 100 µM | TGI (OVCAR-5 ovarian): > 100 µM | TGI (OVCAR-8 ovarian): > 100 µM | TGI (PC-3 prostate): > 100 µM | TGI (SK-MEL-5 melanoma): > 100 µM | TGI (SNB-75 CNS): > 100 µM | TGI (UO-31 renal): > 100 µM

CCC[C@H](O)[C@@H](CNc1cc(NC(C)=O)nc(NC(C)=O)n1)N(Cc1ccccc1)Cc1ccccc1
TGI (ACHN renal): 56.8 µM | TGI (HS 578T breast): > 100 µM | TGI (IGROV1 ovarian): 50.9 µM | TGI (KM12 colon): 39.1 µM | TGI (MDA-N): > 100 µM | TGI (NCI-H460 lung): > 100 µM | TGI (NCI-H522 lung): 27.2 µM | TGI (NCI/ADR-RES ovarian): 73.3 µM | TGI (OVCAR-5 ovarian): > 100 µM | TGI (OVCAR-8 ovarian): 35.1 µM | TGI (PC-3 prostate): 33.5 µM | TGI (SK-MEL-5 melanoma): > 100 µM | TGI (SNB-75 CNS): 34.8 µM | TGI (UO-31 renal): 48.6 µM

N#Cc1nc(C2CC2)oc1N
TGI (ACHN renal): > 100 µM | TGI (HS 578T breast): > 100 µM | TGI (IGROV1 ovarian): > 100 µM | TGI (KM12 colon): > 100 µM | TGI (MDA-N): > 100 µM | TGI (NCI-H522 lung): > 100 µM | TGI (NCI/ADR-RES ovarian): > 100 µM | TGI (OVCAR-5 ovarian): > 100 µM | TGI (OVCAR-8 ovarian): > 100 µM | TGI (PC-3 prostate): > 100 µM | TGI (SNB-75 CNS): > 100 µM

Nc1ccc(-c2ncc3cc(-c4cccc(-c5cc6cnc(-c7ccc(N)cc7)nc6c6ccccc56)c4)c4ccccc4c3n2)cc1
TGI (ACHN renal): > 100 µM | TGI (HS 578T breast): > 100 µM | TGI (IGROV1 ovarian): > 100 µM | TGI (KM12 colon): > 100 µM | TGI (MDA-N): > 100 µM | TGI (NCI-H460 lung): > 100 µM | TGI (NCI-H522 lung): > 100 µM | TGI (NCI/ADR-RES ovarian): > 100 µM | TGI (OVCAR-5 ovarian): > 100 µM | TGI (OVCAR-8 ovarian): > 100 µM | TGI (PC-3 prostate): > 100 µM | TGI (SK-MEL-5 melanoma): > 100 µM | TGI (SNB-75 CNS): > 100 µM | TGI (UO-31 renal): > 100 µM

CN(C)/C(N)=N/C(N)=Nc1cccc(Cl)c1
TGI (ACHN renal): > 100 µM | TGI (HS 578T breast): > 100 µM | TGI (IGROV1 ovarian): 77.9 µM | TGI (KM12 colon): > 100 µM | TGI (MDA-N): > 100 µM | TGI (NCI-H460 lung): > 100 µM | TGI (NCI/ADR-RES ovarian): > 100 µM | TGI (OVCAR-5 ovarian): > 100 µM | TGI (OVCAR-8 ovarian): > 100 µM | TGI (PC-3 prostate): > 100 µM | TGI (SK-MEL-5 melanoma): 74.6 µM | TGI (SNB-75 CNS): > 100 µM | TGI (UO-31 renal): > 100 µM

CCOC(=O)[C@@H]1C[C@H]1c1ccc(O)c(O)c1
TGI (ACHN renal): > 100 µM | TGI (HS 578T breast): > 100 µM | TGI (IGROV1 ovarian): > 100 µM | TGI (KM12 colon): > 100 µM | TGI (MDA-N): 37.8 µM | TGI (NCI-H460 lung): > 100 µM | TGI (NCI-H522 lung): 47.2 µM | TGI (NCI/ADR-RES ovarian): > 100 µM | TGI (OVCAR-5 ovarian): > 100 µM | TGI (OVCAR-8 ovarian): > 100 µM | TGI (PC-3 prostate): > 100 µM | TGI (SK-MEL-5 melanoma): 31.3 µM | TGI (UO-31 renal): > 100 µM
